One data set has as its system MRSA USA400. In words: Time-kill assay against MRSA USA400. Particulars: 4 × MIC; for kill kinetics (in words): MRSA USA400.
For data set [1], the system named is human colorectal cells (HRT-18). In words: Cytotoxicity against human colorectal. Particulars: HRT-18 cells, two hours, MTS; tested 16, 32, 64 μg/mL.
For data set [2], the system named is MRSA USA400 inside infected macrophage (J774) cells. In words: Clearance of intracellular MRSA in infected J774 macrophages. Particulars: 24 hours. Type of data set: cell-based, Staphylococcus aureus.
For data set [3], the system named is murine macrophage (J774) cells. In words: Cytotoxicity against J774 macrophage cells. Particulars: 24-hour incubation, MTS, tested 8, 16, 32 μg/mL. Type of data set: cell-based.
A further data set has as its target T1, human FPPS (HsFPPS) (Homo sapiens, UniProt P14324).
T1 sequence (P14324 1-419): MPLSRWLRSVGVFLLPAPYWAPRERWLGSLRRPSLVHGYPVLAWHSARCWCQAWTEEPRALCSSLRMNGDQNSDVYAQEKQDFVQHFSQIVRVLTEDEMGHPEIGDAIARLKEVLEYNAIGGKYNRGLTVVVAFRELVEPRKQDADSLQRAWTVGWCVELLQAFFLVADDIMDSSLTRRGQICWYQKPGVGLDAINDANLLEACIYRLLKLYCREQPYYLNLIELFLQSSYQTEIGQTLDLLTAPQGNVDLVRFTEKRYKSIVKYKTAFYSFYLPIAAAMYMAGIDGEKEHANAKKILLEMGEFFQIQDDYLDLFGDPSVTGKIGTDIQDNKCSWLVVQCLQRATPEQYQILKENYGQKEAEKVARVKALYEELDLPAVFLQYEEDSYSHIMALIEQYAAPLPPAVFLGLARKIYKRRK
In words: Human FPPS inhibition. Type of data set: biochemical. Particulars: data not shown.

A further data set has as its system Caco-2 cells. In words: Caco-2 bidirectional permeability assay. Type of data set: in vitro ADME, human. In general terms: Passage across Caco-2 layers is used to estimate intestinal permeability.
The nature of data set [4]: Metabolic stability in pooled human liver microsomes. Type of data set: in vitro ADME. Particulars: for Notes (metabolic stability classification): HLM. In general terms: Liver microsomes are vesicles of endoplasmic reticulum, rich in cytochrome P450 enzymes.
A short description of data set [5]: In vivo pharmacokinetics in rat, single IV bolus. Also on record: species or system Sprague-Dawley rats. Particulars: male, Sprague-Dawley, plasma, 2 μM solution, t1/2, rat, two-compartment model.
Data set [6] deals with PMF in E. coli inverted membrane vesicles (IMVs). In words: IMV protonophore uncoupler assay.
For the next data set, the system named is VRS11a (VRSA). In words: Broth microdilution MIC/MBC against VRS11a. Type of data set: cell-based. Particulars: Staphylococcus aureus. For orientation: Broth dilution looks for growth in wells or tubes with falling amounts of substance.
Another data set deals with MRSA USA300. In words: Time-kill assay against MRSA USA300. Particulars: 4 × MIC.
Where [7] appears, read: human, pooled human liver microsomes, pH 7.4.

The record followed here is publication PMC5849061 (European journal of medicinal chemistry, 2018).

SMILES strings stand for the structures. Values after ≈ are worked out from the molar mass of the structure shown. A value given as a limit tells only on which side of the number the result lay.

As to `C/C(=N\NC(=N)N)c1sc(-c2ccc(C#Cc3ccccc3)cc2)nc1C` [Compound 5], the “kill kinetics (in words)” value with MRSA USA400 was “bacteriostatic”. Besides, in data set [1], the “non-toxic up to (concentration)” value was determined as 32 µg/mL.
In the case of `C/C(=N\NC(=N)N)c1sc(-c2ccc(C#CC3CCCCC3)cc2)nc1C` [Compound 6, 2-(1-(2-(4-(Cyclohexylethynyl)phenyl)-4-methylthiazol-5-yl)ethylidene)hydrazine-1-carboximidamide], in [2] (16 μg/mL), the “reduction of the burden of intracellular MRSA” value is recorded as “neither the alicyclic-containing derivatives 6, 7 or 9 (4 × MIC) nor vancomycin (4 × MIC) were able to produce a significant reduction”. In addition, the “non-toxic up to (concentration)” value in [1] is 32 µg/mL.
Turning to `C/C(=N\NC(=N)N)c1sc(-c2ccc(C#CC3CCCC3)cc2)nc1C` [Compound 7, 2-{1-[2-(4-(Cyclopentylethynyl)phenyl)-4-methylthiazol-5-yl]ethylidene} hydrazine-1-carboximidamide], in [3], the “non-toxic to macrophage cells up to a concentration of” value (shortened to “non-toxic to macrophage cells up”) is 8 µg/mL. Further, in data set [2] (8 μg/mL (4 × MIC)), the “reduction of the burden of intracellular MRSA” value is listed as “neither the alicyclic-containing derivatives 6, 7 or 9 (4 × MIC) nor vancomycin (4 × MIC) were able to produce a significant reduction”. For the same compound, the “reduction in MRSA CFU/mL after 8 hours” value with MRSA USA400 (8 hours, re-growth thereafter) was approximately 3 log10. Besides, the “non-toxic up to (concentration)” value in data set [1] worked out at 32 µg/mL.
In general, half-life refers to the time in which the quantity being followed falls by half. Lower therefore signals rapid decline. As usually defined, the microsomal CLint is the capacity of the preparation to metabolise the compound, expressed as a volume cleared per time. Low values mean greater metabolic stability, high ones faster metabolism. As to `C/C(=N\NC(=N)N)c1sc(-c2ccc(C#CC3CC3)cc2)nc1C` [Compound 9, 2-(1-(2-(4-(Cyclopropylethynyl)phenyl)-4-methylthiazol-5-yl)ethylidene) hydrazine-1-carboximidamide], the “non-toxic to macrophage cells up” value in data set [3] stood at 8 µg/mL. Also, in [2] (8 μg/mL (4 × MIC)), the “reduction of the burden of intracellular MRSA” value is “neither the alicyclic-containing derivatives 6, 7 or 9 (4 × MIC) nor vancomycin (4 × MIC) were able to produce a significant reduction”. For the same compound, the “inhibition of HsFPPS” value at human FPPS (HsFPPS) is given as “no inhibition”. In addition, the “Notes (permeability classification)” value in the data set with Caco-2 cells is “Low permeability”. For the same compound, in [4], the “Notes (metabolic stability classification)” value was “Stable to metabolism”. Besides, in [4] (setting [7]), the half-life at 0.1 μM was 4.8 h and the microsomal CLint at 0.1 μM is less than 116 µL/min/mg. This compound gave a half-life in [5] of approximately 4.5 h. In the data set with MRSA USA400, the “time to complete eradication of MRSA USA400” value amounted to 24 h and the “kill kinetics (in words)” value is listed as “slow bactericidal activity”. Further, in data set [1], the “non-toxic up to (concentration)” value came out at 32 µg/mL. In addition, the “EC50 for PMF collapse (corresponding mass concentration)” value in data set [6] (ATP-powered PMF generation) came out at 8 µg/mL. In addition, the “EC50 for PMF collapse (corresponding mass concentration)” value in data set [6] (succinate/O2-powered PMF generation) was 9.5 µg/mL.
What is called MIC is the lowest concentration found to suppress growth. A higher MIC goes with a less susceptible organism. As to `CCCC#Cc1ccc(-c2nc(C)c(/C(C)=N/NC(=N)N)s2)cc1` [Compound 10, 2-(1-(4-Methyl-2-(4-(pent-1-yn-1-yl)phenyl)thiazol-5-yl)ethylidene)hydrazine-1-carboximidamide], the lowest concentration to inhibit growth against VRS11a (VRSA) (MIC) was 0.5 µg/mL (≈ 1.47 µM). Moreover, in data set [3], the “non-toxic to macrophage cells up” value is 16 µg/mL. In addition, in data set [2] (16 μg/mL), the “reduction of the burden of intracellular MRSA” value is given as “complete eradication”. For the same compound, the “kill kinetics (in words)” value with MRSA USA300 is “rapid bactericidal activity”. Further, in data set [1], the “non-toxic up to (concentration)” value came out at 32 µg/mL.
As for `CCCCCC#Cc1ccc(-c2nc(C)c(/C(C)=N/NC(=N)N)s2)cc1` [Compound 11, 2-(1-(2-(4-(Hep-1-yn-1-yl)phenyl)-4-methylthiazol-5-yl)ethylidene)hydraz-ine-1-carboximidamide], in data set [3], the “non-toxic to macrophage cells up” value worked out at 16 µg/mL. The “reduction of the burden of intracellular MRSA” value in data set [2] (16 μg/mL) is given as “complete eradication”. For the same compound, the “kill kinetics (in words)” value in the data set with MRSA USA300 is “rapid bactericidal activity”. For the same compound, the “non-toxic up to (concentration)” value in [1] stood at 32 µg/mL.
With `CCCCCCC#Cc1ccc(-c2nc(C)c(/C(C)=N/NC(=N)N)s2)cc1` [Compound 12], the “non-toxic up to (concentration)” value in data set [1] stood at 32 µg/mL.
Regarding `C/C(=N\NC(=N)N)c1sc(-c2ccc(C#CC(C)(C)C)cc2)nc1C` [Compound 13, 2-(1-(2-(4-(3,3-Dimethylbut-1-yn-1-yl)-phenyl)-4-methylthiazol-5-yl)ethylidene) hydrazine-1-carboximidamide], in data set [1], the “non-toxic up to (concentration)” value was 32 µg/mL.
As to `C/C(=N\NC1=NCCN1)c1sc(-c2ccc(C#CC3CC3)cc2)nc1C` [Compound 19, 2-(4-(Cyclopropylethynyl)phenyl)-5-(1-(2-(4,5-dihydro-1H-imidazol-2-yl)hydrazono)ethyl)-4-methylthiazole], the “Notes (metabolic stability classification)” value in data set [4] was “Stable to metabolism”.
As to `C/C(=N\NC1=NCCN1)c1sc(-c2ccc(C#CC(C)(C)C)cc2)nc1C` [Compound 23, 5-(1-(2-(4,5-Dihydro-1H-imidazol-2-yl)hydrazono)ethyl)-2-(4-(3,3-dimethylbut-1-yn-1-yl)phenyl)-4-methylthiazole], the “non-toxic up to (concentration)” value in data set [1] worked out at 32 µg/mL.
As for `CN[C@H](CC(C)C)C(=O)N[C@H]1C(=O)N[C@@H](CC(N)=O)C(=O)N[C@H]2C(=O)N[C@H]3C(=O)N[C@H](C(=O)N[C@H](C(=O)O)c4cc(O)cc(O)c4-c4cc3ccc4O)[C@H](O)c3ccc(c(Cl)c3)Oc3cc2cc(c3O[C@@H]2O[C@H](CO)[C@@H](O)[C@H](O)[C@H]2O[C@H]2C[C@](C)(N)[C@H](O)[C@H](C)O2)Oc2ccc(cc2Cl)[C@H]1O` [Vancomycin, reference compound], the “time to complete eradication of MRSA USA400” value in the data set with MRSA USA400 came to 24 h.
